# Assay results as given in ChEMBL document CHEMBL5321279 (J Med Chem, 2023).
# Active and inactive are the calls of the source. No cut-off for these calls is given here.
# Columns and labels:
# [1] = (§1) Cytotoxicity against human primary hepatocytes assessed as reduction in cell growth measured after 5 days by CellTiter-Glo assay; assay type: toxicity, cell-based, Hepatocyte; conditions: primary hepatocytes, time 5 day
# [2] = (§2) Cytotoxicity against stimulated human PBMC cells assessed as reduction in cell growth measured after 5 days by CellTiter-Glo assay; assay type: toxicity, cell-based; conditions: stimulated PBMC, time 5 day
# [3] = AUC(0 to 24 hrs) in rat at 5 mg/kg, po measured upto 24 hrs by LC-MS/MS analysis; assay type: ADME, organism-based; design: dose 5 mg/kg, time < 24 hrs, route po; conditions: in vivo
# [4] = AUC(0 to 24 hrs) in African green monkey at 20 mg/kg, iv measured upto 24 hrs by LC-MS/MS analysis; assay type: ADME, organism-based; design: dose 20 mg/kg, time < 24 hrs, route iv; conditions: chlorocebus sabaeus, in vivo
# [5] = AUC(0 to 24 hrs) in cynomolgus monkey at 5 mg/kg, po measured upto 24 hrs by LC-MS/MS analysis; assay type: ADME, organism-based, Macaca fascicularis; design: dose 5 mg/kg, time < 24 hrs, route po; conditions: in vivo
# [6] = Cmax in African green monkey infected with SARS-CoV-2 assessed as prodrug conversion by measuring (2R,3R,4S,5R)-2-(4-aminopyrrolo[2,1-f][1,2,4]triazin-7-yl)-3,4-dihydroxy-5-(hydroxymethyl)tetrahydrofuran-2-carbonitrile at 60 mg/kg, po qd measured after 6 days by LC-MS/MS analysis; assay type: ADME, organism-based, Severe acute respiratory syndrome coronavirus 2; design: dose 60 mg/kg, time 6 day, route po; conditions: in vivo
# [7] = Cmax in African green monkey assessed as prodrug conversion by measuring (2R,3R,4S,5R)-2-(4-aminopyrrolo[2,1-f][1,2,4]triazin-7-yl)-3,4-dihydroxy-5-(hydroxymethyl)tetrahydrofuran-2-carbonitrile at […], po measured upto 24 hrs by LC-MS/MS analysis; assay type: ADME, organism-based; conditions: chlorocebus sabaeus, in vivo
# [8] = Cmax in dog assessed as prodrug conversion by measuring (2R,3R,4S,5R)-2-(4-aminopyrrolo[2,1-f][1,2,4]triazin-7-yl)-3,4-dihydroxy-5-(hydroxymethyl)tetrahydrofuran-2-carbonitrile at […], po measured upto 24 hrs by LC-MS/MS analysis; assay type: ADME, organism-based, Canis lupus familiaris; conditions: in vivo
# SARS-CoV-2 [9] = experiment: Antiviral activity against SARS-CoV-2 infected in African green monkey assessed as reduction in genomic RNA load in BALF at 60 mg/kg, po qd administered for 1 day starting from 8 hrs post infection by RT-qPCR analysis; assay type: functional, organism-based; conditions: Severe acute respiratory syndrome coronavirus 2
# [10] = Stability of compound in dog gastrointestinal S9 fraction assessed as half life at pH 7.4 measured upto 120 mins by LC-MS/MS analysis; assay type: ADME, subcellular, Canis lupus familiaris, Gastrointestinal tract
# Hepatocyte = experiment: as §1; assay type: toxicity, cell-based; conditions: hepatocytes, 120 h, time 5 day
# PBMC = experiment: as §2; assay type: toxicity, cell-based; conditions: pbmc, 120 h, time 5 day
# [11] = Half life in cynomolgus monkey assessed as prodrug conversion by measuring (2R,3R,4S,5R)-2-(4-aminopyrrolo[2,1-f][1,2,4]triazin-7-yl)-3,4-dihydroxy-5-(hydroxymethyl)tetrahydrofuran-2-carbonitrile at 11.7 mg/kg, po measured upto 24 hrs by LC-MS/MS analysis; assay type: ADME, organism-based, Macaca fascicularis; conditions: in vivo
# CES1c = experiment: Stability of compound assessed as human recombinant CES1c-mediated compound hydrolysis by measuring half life at pH 7.4 using oseltamivir as substrate measured upto 120 mins by LC-MS/MS analysis; assay type: ADME; conditions: pH 7.4, probe oseltamivir
# [12] = Stability of compound in rat plasma assessed as half life measured upto 4 hrs by LC-MS/MS analysis; assay type: ADME, cell-free
# SARS-CoV-2 [13] = experiment: Antiviral activity against SARS-CoV-2 infected in African green monkey assessed as reduction in viral genomic RNA load in throat swabs at 120 mg/kg, po qd administered for 4 days starting from 8 hrs post infection by RT-qPCR analysis; assay type: functional, organism-based; conditions: Severe acute respiratory syndrome coronavirus 2, time 4.0 day
# [14] = Stability of compound in rat liver S9 fraction assessed as half life at pH 7.4 measured upto 90 mins by LC-MS/MS analysis; assay type: ADME, subcellular
# [15] = AUC(0 to 24 hrs) in cynomolgus monkey assessed as prodrug conversion by measuring (2R,3R,4S,5R)-2-(4-aminopyrrolo[2,1-f][1,2,4]triazin-7-yl)-3,4-dihydroxy-5-(hydroxymethyl)tetrahydrofuran-2-carbonitrile at 11.7 mg/kg, po measured upto 24 hrs by LC-MS/MS analysis; assay type: ADME, organism-based, Macaca fascicularis; design: dose 11.7 mg/kg, time < 24 hrs, route po; conditions: in vivo
# [16] = Prodrug conversion in African green monkey assessed as Nucleotide triphosphate metabolite formation in lung at 60 mg/kg, po measured upto 24 hrs by LC-MS/MS analysis; assay type: ADME, organism-based; conditions: chlorocebus aethiops, in vivo
# SARS-CoV-2 [17] = experiment: Antiviral activity against SARS-CoV-2 infected in African green monkey assessed as reduction in viral titer in throat swabs at 60 to 120 mg/kg, po qd administered for 6 days starting from 8 hrs post infection by PFA assay; assay type: functional, organism-based; conditions: Severe acute respiratory syndrome coronavirus 2, dose lower 60.0 mg/kg, dose upper […], time 6.0 day
# [18] = Cmax in cynomolgus monkey assessed as prodrug conversion by measuring (2R,3R,4S,5R)-2-(4-aminopyrrolo[2,1-f][1,2,4]triazin-7-yl)-3,4-dihydroxy-5-(hydroxymethyl)tetrahydrofuran-2-carbonitrile at 11.7 mg/kg, po measured upto 24 hrs by LC-MS/MS analysis; assay type: ADME, organism-based, Macaca fascicularis; design: time < 24 hrs, dose 11.7 mg/kg, route po; conditions: in vivo
# [19] = Cmax in African green monkey assessed as prodrug conversion by measuring (2R,3R,4S,5R)-2-(4-aminopyrrolo[2,1-f][1,2,4]triazin-7-yl)-3,4-dihydroxy-5-(hydroxymethyl)tetrahydrofuran-2-carbonitrile at 86.5 mg/kg, po measured upto 24 hrs by LC-MS/MS analysis; assay type: ADME, organism-based; design: dose 86.5 mg/kg, time < 24 hrs, route po; conditions: chlorocebus sabaeus, in vivo
# [20] = AUC(0 to 24 hrs) in rat assessed as prodrug conversion by measuring (2R,3R,4S,5R)-2-(4-aminopyrrolo[2,1-f][1,2,4]triazin-7-yl)-3,4-dihydroxy-5-(hydroxymethyl)tetrahydrofuran-2-carbonitrile at 6 mg/kg, po measured upto 24 hrs by LC-MS/MS analysis; assay type: ADME, organism-based; design: time < 24 hrs, dose 6 mg/kg, route po; conditions: in vivo
# [21] = Oral bioavailability in cynomolgus monkey assessed as prodrug conversion by measuring (2R,3R,4S,5R)-2-(4-aminopyrrolo[2,1-f][1,2,4]triazin-7-yl)-3,4-dihydroxy-5-(hydroxymethyl)tetrahydrofuran-2-carbonitrile at 11.7 mg/kg administered in solid form measured upto 24 hrs by LC-MS/MS analysis; assay type: ADME, organism-based, Macaca fascicularis; conditions: in vivo
smiles,measurement,setting,value
CCC(CC)COC(=O)[C@H](C)N[P@](=O)(OC[C@H]1O[C@@](C#N)(c2ccc3c(N)ncnn23)[C@H](O)[C@@H]1O)Oc1ccccc1,CC50 at 120 h,[1],2.5 µM
same,CC50 at 120 h,[2],14.8 µM
N#C[C@@]1(c2ccc3c(N)ncnn23)O[C@H](CO)[C@@H](O)[C@H]1O [GS-441524],AUC,[3],3.97 µM·h
same,AUC,[4],147 µM·h
same,AUC,[5],1.67 µM·h
CC(C)C(=O)OC[C@H]1O[C@@](C#N)(c2ccc3c(N)ncnn23)[C@H](O)[C@@H]1O [OBELDESIVIR],Cmax,[6],21 µM
same,Cmax,[7],6.81 µM
same,Cmax,[8],57.8 µM
same,Activity,SARS-CoV-2 [9],inactive
same,half-life,[10],< 2 min
same,CC50,Hepatocyte,> 100 µM
same,CC50,PBMC,> 100 µM
same,t1/2,[11],157 min
same,half-life,CES1c,4.3 min
same,half-life,[12],< 3 min
same,Activity,SARS-CoV-2 [13],Active
same,half-life at […],[14],< 2 min
same,AUC,[15],21.6 µM·h
same,Drug metabolism,[16],0.31 nmol/g
same,Activity,SARS-CoV-2 [17],Active
same,Cmax,[18],7.57 µM
same,Cmax,[19],19.6 µM
same,AUC,[20],7.57 µM·h
same,F,[21],18%
